Reference: a melting point compilation (Tetko et al.; mined from patent text by program, amines drawn as free bases though some values may be those of a salt)

| SMILES | melting point [°C] |
| --- | --- |
| NC(=O)c1cnn2cccc2c1NC1CCC(O)CC1 (configuration not stated) | 192 |
| O=C1C2CCC(N2)C(=O)N1Cc1ccccc1 | 72 |
| O=C(NCc1cccnc1)Nc1ccc(S)cc1 | 155 to 159 |
| CCc1nsc(C(=O)NC(C)C)c1C(=O)OC | 55 to 56 |
| CN1C(=O)CC[C@]2(C)c3ccc(-c4ccc(F)cc4)cc3CC[C@@H]12 | 121 to 122 |
| Cc1ncc2cccc(O)c2n1 | 135 to 137 |
| CCOC(=O)c1ccc(Nc2cc(C)nc3cn[nH]c23)cc1 | 247 to 250 |
| CC1Cc2ccc(C#N)cc2C1=O (configuration not stated) | 95 |
| CCC(=O)Oc1ccc(/C=C/C=C/C(=O)NCCN2CCC(c3c[nH]c4ccccc34)CC2)cc1OC | 157 to 158 |
| COc1cc(OC)cc(-c2nc3ccc(Nc4ccncc4)cc3c(=O)[nH]2)c1 | 289 to 290 |
| O=c1ccn(-c2cccc(C(F)(F)F)c2)nc1-c1ccnn1CC1CC1 | 155 to 157 |
| O=C(c1c[nH]c2ccc(Br)cc12)[C@H]1CCCN1C(=O)OCc1ccccc1 | 95 to 96 |
| COCCOCCOCC(=O)Nc1cc(C(=O)O)cc([N+](=O)[O-])c1 | 136 to 137 |
| CCN1C(=O)C2CCc3c(Br)ccc(OC)c3C2C1=O (configuration not stated) | 170 to 174 |
| COc1cc(C(=O)n2ccnc2)cc([N+](=O)[O-])c1OC | 136 to 137 |
| N#Cc1cc(F)c(NN=CC(=O)C(F)(F)F)nc1Cl | 174 to 176 |
| CCCCn1ccc(N2CCC(c3ccc(C(C)(C)O)cc3F)CC2)c(Cl)c1=O | 150 |
| CC=CCOc1ccc(C)c2c1C(=O)C(C)C2c1ccccc1 (configuration not stated) | 138 to 140 |
| CCCn1ncc2c(=O)[nH]c(-c3cc(S(=O)(=O)Cl)ccc3OCC)nc21 | 177 to 180 |
| CCCCCCCCCCCCOC(CCCCCCCCCCCC)COCC(O)COc1ccc(N2CCOCC2)cc1 (configuration not stated) | 49 to 52 |
| CC1CCc2c(O)ccc3c(=O)c(C(=O)O)cn1c23 (configuration not stated) | > 300 |
| CCC(=O)C1OC(O)C(O)C1OCc1ccccc1Cl (configuration not stated) | 130 to 133 |
| CCOc1nc(O)cc(O)n1 | > 250 |
| O=C(O)C(=O)CC(=O)c1cccn1Cc1ccccc1F | 155 to 156 |
| Cc1c(NC(=O)C(CSC(=O)N(C)C)Cc2ccccc2)cccc1C(=O)O (configuration not stated) | 84 to 87 |
| CCCNc1nc(-c2ccccc2)c(CCC(=O)OC)s1 | 67 to 68 |

| SMILES | melting point [°C] |
| --- | --- |
| CC(C)(C)C(=O)OCOC(=O)c1cccnc1Nc1cccc(C(F)(F)F)c1 | 55 to 56 |
| O=C(O)CC[C@@H](Cc1cn(CCCc2ccccc2)c2ccccc12)NC(=O)CCCCCCc1ccccc1 | 100 to 102 |
| CC(C)(C)c1ccc(-c2nnc(-c3ccc(C(=O)O)cc3[N+](=O)[O-])o2)cc1 | 233 to 235 |
| O=Cc1ccc(OC2CCN(C(=O)OCC3c4ccccc4-c4ccccc43)CC2)cc1 | 106 to 108 |
| O=C(O)Cc1cc(C(=O)C=Cc2ccc(F)cc2)ccc1O | 212 |
| COc1ccc(-c2cc3cc(F)c(F)cc3[nH]2)cc1NCc1ccc([N+](=O)[O-])c(O)c1 | 170 to 171 |
| CCOC(=O)C=C(NNc1c(C)cc(C)c([N+](=O)[O-])c1C)OC | 82 to 83 |
| CCCNC(=O)N1CC(Oc2ccc(C(F)(F)F)cc2)C1 | 119 to 120 |
| CCOC(=O)C(C)NNc1cc(F)cc(F)c1 (configuration not stated) | 139 to 141 |
| CCCCCCCCCCC(O)CNCCNCC(O)CCCCCCCCCC (configuration not stated) | 137 to 142 |
| Nc1ccc(C(O)(Cc2ccccc2)c2ccccc2)cc1 (configuration not stated) | 105 to 107 |
| Cc1[nH]c(=O)sc1C#N | 180 to 181 |
| COC(=O)c1cc2c(Br)csc2nc1C(=O)OC | 86 to 87.5 |
| CCN(CC)C1=NC(=O)C(=Cc2cccc(-c3ccc(O)c(C45CC6CC(CC(C6)C4)C5)c3)c2)S1 | 275 to 277 |
| Cc1nc2c(N)nc3ccccc3c2n1CC1(O)CCCCC1 | > 250 |
| FC(F)(F)C1(c2cc(Cl)cc(Cl)c2)CC(c2ccc(-n3ccnc3)cc2)=NO1 (configuration not stated) | 193 to 195 |
| CCCCc1nc2c(N)nc3cccnc3c2n1CCNC(=O)C(CC(C)C)NC(=O)OC(C)(C)C (configuration not stated) | 184 to 185 |
| CCOC(=O)N1CCN(C=C2C(=O)Nc3cc(OC)c(OC)cc32)CC1 | 172 to 174 |
| NS(=O)(=O)c1ccc(NC(=O)NC23CC4CC(CC(C4)C2)C3)cc1 | 270 to 275 |
| NC(=O)N1CC(Oc2cccc(Br)c2)C1 | 188 to 189 |
| CCOC(=O)c1ccc(Br)cc1COC(C)=O | 51.5 to 52.5 |
| COc1ccc(CS[C@@H]2C[C@@H](CNCc3ccccc3)N(S(C)(=O)=O)C2)cc1 | 63 to 64 |
| Cc1c2c(c3ccccc3c1O)OCC2c1ccc(C(C)C)cc1 (configuration not stated) | 94 to 96 |
| Cc1c(C)c(CC(C)(C)C#N)c(C)c(C)c1CC(C)(C)C#N | 187 to 190 |
| O=C1c2ccccc2CCC1n1cncn1 (configuration not stated) | 96 to 98 |
| Nc1ccc2ncnc(Nc3ccc(Oc4ccccc4)cc3)c2c1 | 89 to 90 |

| SMILES | melting point [°C] |
| --- | --- |
| CCN(CC)Cc1cccc(OCCCNc2nc(N)nn2C)c1 | 68 to 69 |
| O=C(O)c1cnc2c3ccccc3c(O)cn2c1=O | 273 to 276 |
| O=C(NC(=O)c1ccccc1Cl)Nc1ccc(C=C(Br)Br)cc1 | 190 |
| CSC1=NC2=NC3=C(CSCC3=O)CN2N1 | 295 to 297 |
| CC(C)NC(=O)Cc1cccc(N)c1 | 93 to 95 |
| Clc1ccc(CCN2CCC3(CC2)Oc2ccccc2Cn2cccc23)cc1 | 116 to 118 |
| CCOc1ccc(-c2nc(CCC(=O)c3ccccc3C(=O)OC)cs2)cc1OCC | 91.7 to 92.9 |
| O=C1Nc2cc(F)ccc2Nc2ccsc21 | 225 to 230 |
| CCOc1ccc(N2CCN(c3c(C)c4c(c(OC)c3C)OC(C)C4)CC2)cc1 (configuration not stated) | 117 to 119 |
| CC(=O)OC1CSC(Oc2cccnc2)C(OC(C)=O)C1OC(C)=O (configuration not stated) | 147 |
| CCCn1c(-c2ccccc2)nc2cc(C#N)c(C#N)cc21 | 183 to 185 |
| CC1CC(=O)NN=C1c1ccc(NC(=O)OC(C)C2CC2)cc1 (configuration not stated) | 223 to 224 |
| CN1Cc2c(C(=O)OC(C)(C)C)ncn2-c2cccc(I)c2C1=O | 203 to 204 |
| O=C1CC(O)c2c1cc[nH]c2=O (configuration not stated) | 200 |
| Cc1cccc(OS(=O)(=O)c2ccc(N3CCN(C)C3=O)cc2)c1 | 123 to 125 |
| Cc1c(C)n(Cc2ccccc2)c(=O)[nH]c1=O | 187 to 189 |
| O=C(NC(=O)c1c(F)cccc1F)Nc1ccc(-c2ccc(Cl)cc2)cn1 | 229 to 234 |
| O=C(Nc1ccc(C(F)(F)F)cc1)Nc1nc(OCC(F)(F)F)cc(OCC(F)(F)F)n1 | 167 to 168 |
| Cc1cc(CCCCCOc2ccc(C#N)cc2)no1 | 61 to 62 |
| N#Cc1csc([N+](=O)[O-])c1Br | 176 to 178 |
| NS(=O)(=O)c1ccc(-c2cnn(Cc3ccc(F)c(F)c3F)c(=O)c2-c2ccc(F)cc2)cc1 | 218 to 220 |
| CC(C)C1(Cl)Cc2cc(OCC(=O)O)c(Cl)c(Cl)c2C1=O (configuration not stated) | 158 to 159 |
| CNC(=O)[C@@H](NC(=O)[C@@H](CC(=O)OCc1ccccc1)n1ccc(-c2ccc(-c3ccc(C#N)cc3)cc2)c1)C(C)(C)C | 120 |
| CCCc1c(C(=O)CC(C)OC)c2ccc(C(N)=O)cc2n1Cc1cc2c(cc1Cl)OCO2 (configuration not stated) | 190 to 192 |
| Cc1nc2cnc(Nc3ccc(N4CCNCC4)cn3)nc2n(C2CCCC2)c1=O | 221 to 223 |
| COC(=O)c1ccc(C2C(C(=O)c3ccc(C)cc3)=C(O)C(=O)N2c2ncc(S(=O)(=O)c3ccc([N+](=O)[O-])cc3)s2)cc1 (configuration not stated) | 249 to 251 |

| SMILES | melting point [°C] |
| --- | --- |
| Cc1cccc2c1NS(=O)(=O)N(C(C)C)C2=O | 124 |
| N#CCc1cc(Cl)cc(Cc2nc3c(F)c(F)cc(F)c3s2)c1 | 114 to 117 |
| O=C(NN=Cc1ccc2ccccc2n1)c1ccccc1[N+](=O)[O-] | 195 to 196 |
| Cc1ccc(-c2c(CNC(=O)OC(C)(C)C)c(CC(C)(C)C)nc(C)c2C(=O)O)cc1 | 216 to 217 |
| CC(C)Oc1ccc(CCCOc2cc(CCC(=O)O)n(Cc3ccccc3)n2)c(Oc2ncc(C(F)(F)F)cc2Cl)c1 | 99 to 100 |
| CCCc1nc2c(N)nc(C)c(C)c2n1CCOCc1ccccc1 | 99.5 to 100 |
| CCCC(=O)Oc1ccc(C)cc1[C@H](CCN(C(C)C)C(C)C)c1ccccc1 | 116 to 119 |
| Oc1ccc(C(O)CNCCCn2cnc3ccccc32)cc1 (configuration not stated) | 146 to 148 |
| CC(C)NC(=S)N1CCc2[nH]cnc2C1c1ccccc1 (configuration not stated) | 198 |
| O=C(CCC(=O)N1CCC(c2ccc(Cl)cc2)CC1)c1ccc2c(c1)CN(Cc1ccccc1)CC2 | 102 to 103 |
| COc1ccc2c(c1OC)CCC1C(=O)NC(=O)C21 (configuration not stated) | 217 to 219 |
| Sc1nnc(-c2cnccn2)s1 | 224 to 228 |
| CCCn1nnc(NC(=O)C(c2ccccc2)c2ccccc2)n1 | 124 to 125 |
| Cc1oc(-c2ccccc2)nc1COc1ccc(CCCBr)cc1 | 80 to 81 |
| C=CCN(CC=C)Cc1noc(-c2ncn3c2[C@@H]2CCN2C(=O)c2c-3cccc2C(F)(F)F)n1 | 147 to 150 |
| Clc1cc(Cl)c(Oc2nc(Oc3c(Cl)cc(Cl)c(Cl)c3Cl)nc(Oc3c(Cl)cc(Cl)c(Cl)c3Cl)n2)c(Cl)c1Cl | 165 to 168 |
| CCOC(=O)CON=c1c2nccc3cccc(c32)n2cccc12 | 134 |
| C[Si](C)(CCl)c1ccc(-c2ccccc2)cc1 | 30 to 40 |
| O=S(CCCCCOc1ccc(C2=C(c3ccccc3)CCCc3ccccc32)cc1)CCCC(F)(F)C(F)(F)F (configuration not stated) | 114 to 116 |
| Cc1cc(-c2nn(CC(C)C)c(=O)c(O)c2C)ccc1F | 107 to 110 |
| CCCCCS(=O)(=O)NC(=O)c1ccc2nc(C)n(Cc3ccc(N(C)C(=O)OCC)cc3Cl)c2n1 | 149 to 150 |
| COc1ccc(OC(=O)Nc2cc(C(=O)O)cc(C(=O)O)c2)cc1 | > 300 |
| CCC(O)C#Cc1ccc2c(=O)c(-c3ncc[nH]3)c(N)n(CC3CC3)c2n1 (configuration not stated) | 252 |
| CCOC(=O)C1=C(COCC(C)(O)c2ncc[nH]2)NC(C)=C(C(=O)OC)C1c1cccc(Cl)c1Cl (configuration not stated) | 183 |
